According to patent publication US6756359B2, “C12 modified erythromycin macrolides and ketolides having antibacterial activity” (Chiron Corporation, priority 2001, dated 2004):
Converted amounts (≈) assume the structure as drawn.

Tests used:
Assay in all cases: Antibacterial activity in vitro, MIC by broth microdilution
[1] = system: S. pneumoniae Stpn_Mef 5654; assay type: cell-based, Streptococcus pneumoniae; conditions: Table 3, Strain ID J: S. pneumoniae Stpn_Mef 5654; unit assumed
Procedure, shortened: (§1)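 NCCLS microdilution; CAMHB; 2-fold series; 3×10^5–7×10^5 CFU/mL; 35° C., 18-24 h, ambient air except S. pneumoniae (5-10% CO2, lysed horse blood 2-5%). Endpoint: no visible growth.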

[2] = system: S. pneumoniae Stpn_280-962 Pen S; assay type: cell-based, Streptococcus pneumoniae; conditions: Table 3, Strain ID G: S. pneumoniae Stpn_280-962 Pen S
Procedure, shortened: as §1

[3] = system: S. pneumoniae Stpn_Erm 6849; assay type: cell-based, Streptococcus pneumoniae; conditions: Table 3, Strain ID H: S. pneumoniae Stpn_Erm 6849; unit assumed
Procedure, shortened: as §1

[4] = system: S. pneumoniae Stpn_Mef S 3427; assay type: cell-based, Streptococcus pneumoniae; conditions: Table 3, Strain ID K: S. pneumoniae Stpn_Mef S 3427
Procedure, shortened: as §1

S. pneumoniae Stpn_49619 = assay type: cell-based, Streptococcus pneumoniae; conditions: Table 3, Strain ID E: S. pneumoniae Stpn_49619
Procedure, shortened: as §1

[5] = system: S. pneumoniae Stpn_Erm S 4297; assay type: cell-based, Streptococcus pneumoniae; conditions: Table 3, Strain ID I: S. pneumoniae Stpn_Erm S 4297
Procedure, shortened: as §1

[6] = system: S. pneumoniae Stpn_297-749 Pen R; assay type: cell-based, Streptococcus pneumoniae; conditions: Table 3, Strain ID F: S. pneumoniae Stpn_297-749 Pen R
Procedure, shortened: as §1

S. pyogenes Stpy_8668 = assay type: cell-based; conditions: Table 3, Strain ID D: S. pyogenes Stpy_8668
Procedure, shortened: as §1

E. coli Esco_25922 = assay type: cell-based; conditions: Table 3, Strain ID M: E. coli Esco_25922; unit assumed
Procedure, shortened: as §1

E. faecalis Enfa_29212 = assay type: cell-based; conditions: Table 3, Strain ID C: E. faecalis Enfa_29212; unit assumed
Procedure, shortened: as §1

[7] = system: S. epidermidis Step_14990; assay type: cell-based; conditions: Table 3, Strain ID A: S. epidermidis Step_14990; unit assumed
Procedure, shortened: as §1

[8] = system: S. epidermidis Step_f50654 Pen S; assay type: cell-based; conditions: Table 3, Strain ID B: S. epidermidis Step_f50654 Pen S; unit assumed
Procedure, shortened: as §1

H. influenzae Hain_49247 = assay type: cell-based, Haemophilus influenzae; conditions: Table 3, Strain ID L: H. influenzae Hain_49247; unit assumed
Procedure, shortened: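 Visible-growth inhibition defined the MIC, obtained by NCCLS broth microdilution at 35° C. over 18-24 hours with a final inoculum of 3×10^5–7×10^5 CFU/mL.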

With `CC[C@H]1OC(=O)[C@H](C)C(=O)[C@H](C)[C@@H](O[C@@H]2O[C@H](C)C[C@H](N(C)C)[C@H]2O)[C@@](C)(OC)C[C@@H](C)C(=O)[C@H](C)[C@H]2N(CCCCn3cnc(-c4cccnc4)c3)C(=O)O[C@]12CC` [Compound 7280] the MIC [1] was 0.4 µg/mL (≈ 0.484 µM), the MIC [2] was “≦0.05” and the MIC [3] was 0.4 µg/mL (≈ 0.484 µM). For the same compound, the MIC ([4]; unit assumed) was 0.1 µg/mL (≈ 0.121 µM), the MIC (S. pneumoniae Stpn_49619) was “≦0.05” and the MIC [5] was “≦0.05”. For the same compound, the MIC [6] was “≦0.05”, the MIC (S. pyogenes Stpy_8668) was “≦0.05” and the MIC (E. coli Esco_25922) was 25 µg/mL (≈ 30.3 µM). The MIC (E. faecalis Enfa_29212) was 0.1 µg/mL (≈ 0.121 µM), the MIC [7] was 0.2 µg/mL (≈ 0.242 µM) and the MIC [8] was 0.2 µg/mL (≈ 0.242 µM). It also gave an MIC (H. influenzae Hain_49247) of 6.25 µg/mL (≈ 7.57 µM).

For `CC[C@H]1OC(=O)[C@H](C)C(=O)[C@H](C)[C@@H](O[C@@H]2O[C@H](C)C[C@H](N(C)C)[C@H]2O)[C@@](C)(OC)C[C@@H](C)C(=O)[C@H](C)[C@H]2N(CCCCn3cnc(-c4ccccc4)c3)C(=O)O[C@]12CC` [Compound 7281], the MIC [1] was 0.4 µg/mL (≈ 0.485 µM), the MIC [2] was “≦0.05” and the MIC [3] was 0.2 µg/mL (≈ 0.242 µM). For the same compound, the MIC [4] was “≦0.05”, the MIC (S. pneumoniae Stpn_49619) was “≦0.05” and the MIC [5] was “≦0.05”. For the same compound, the MIC [6] was “≦0.05”, the MIC (S. pyogenes Stpy_8668) was “≦0.05” and the MIC (E. coli Esco_25922) was 25 µg/mL (≈ 30.3 µM). It also gave an MIC (E. faecalis Enfa_29212) of 0.1 µg/mL (≈ 0.121 µM), an MIC [7] of 0.2 µg/mL (≈ 0.242 µM) and an MIC [8] of 0.1 µg/mL (≈ 0.121 µM). It also gave an MIC (H. influenzae Hain_49247) of 3.13 µg/mL (≈ 3.79 µM).

`CC[C@H]1OC(=O)[C@H](C)C(=O)[C@H](C)[C@@H](O[C@@H]2O[C@H](C)C[C@H](N(C)C)[C@H]2O)[C@@](C)(OC)C[C@@H](C)C(=O)[C@H](C)[C@H]2N(CCCCn3cnc4ccccc43)C(=O)O[C@]12CC` [Compound 7282] was tested, and the MIC [1] was 0.4 µg/mL (≈ 0.501 µM), the MIC [2] was “≦0.05” and the MIC [3] was 0.78 µg/mL (≈ 0.976 µM). For the same compound, the MIC ([4]; unit assumed) was 0.1 µg/mL (≈ 0.125 µM), the MIC (S. pneumoniae Stpn_49619) was “≦0.05” and the MIC ([5]; unit assumed) was 0.2 µg/mL (≈ 0.25 µM). The MIC [6] was “≦0.05”, the MIC (S. pyogenes Stpy_8668) was “≦0.05” and the MIC (E. coli Esco_25922) was 12.5 µg/mL (≈ 15.6 µM). It also gave an MIC (E. faecalis Enfa_29212) of 0.1 µg/mL (≈ 0.125 µM), an MIC [7] of 0.4 µg/mL (≈ 0.501 µM) and an MIC [8] of 0.2 µg/mL (≈ 0.25 µM). The MIC (H. influenzae Hain_49247) was 3.13 µg/mL (≈ 3.92 µM).

For `CC[C@H]1OC(=O)[C@H](C)C(=O)[C@H](C)[C@@H](O[C@@H]2O[C@H](C)C[C@H](N(C)C)[C@H]2O)[C@@](C)(OC)C[C@@H](C)C(=O)[C@H](C)[C@H]2N(CCCCc3ccnc4ccccc34)C(=O)O[C@]12CC` [Compound 7283], the MIC [1] was 0.4 µg/mL (≈ 0.494 µM), the MIC [2] was “≦0.05” and the MIC [3] was 0.4 µg/mL (≈ 0.494 µM). The MIC [4] was “≦0.05”, the MIC (S. pneumoniae Stpn_49619) was “≦0.05” and the MIC ([5]; unit assumed) was 0.1 µg/mL (≈ 0.123 µM). For the same compound, the MIC [6] was “≦0.05”, the MIC (S. pyogenes Stpy_8668) was “≦0.05” and the MIC (E. coli Esco_25922) was 12.5 µg/mL (≈ 15.4 µM). For the same compound, the MIC (E. faecalis Enfa_29212) was 0.1 µg/mL (≈ 0.123 µM), the MIC [7] was 0.2 µg/mL (≈ 0.247 µM) and the MIC [8] was 0.2 µg/mL (≈ 0.247 µM). The MIC (H. influenzae Hain_49247) was 3.13 µg/mL (≈ 3.86 µM).
